Drawing on the NIST ThermoML archive (doi:10.1016/j.jct.2016.07.032), this text covers refractive index, speed of sound and mass density for 7 compounds.

Numbers after ± are expanded uncertainties.

The nature of series [1]: refractive index (Na D-line) (dimensionless); xn = mol fraction of the nth substance listed. The note with it: 101.3 kPa, Liquid, Standard Abbe refractometry, x2 = 0.
The nature of series [2]: xn = mol fraction of the nth substance listed. The note with it: 101.3 kPa, Liquid, x2 = 0; for speed of sound: Frequency=3 MHz, Sing-around technique in a fixed-path interferometer; for mass density: Vibrating tube method.
The conditions of series [3]: 101.3 kPa, Liquid; for speed of sound: Frequency=3 MHz, Sing-around technique in a fixed-path interferometer; for mass density: Vibrating tube method.
Series [4] in a line: refractive index (Na D-line) (dimensionless). The settings on record: 101.3 kPa, Liquid, Standard Abbe refractometry.

The refractive index is a measure of how strongly the sample bends light. The term speed of sound denotes how fast a sound wave travels through the sample. A word on the mass density: it is the mass of a sample divided by its volume. As to `CN(C)C=O` [dimethylformamide] + CCOc1ccccc1, the values for the refractive index in series [1] (298 K), in series [1] (303 K) and in series [1] (308 K) were 1.429 ± 0.002, 1.427 ± 0.002 and 1.425 ± 0.002, respectively. The speed of sound in series [2] (298 K) was determined as 1457 ± 2 m/s; in series [2] (303 K) it was 1437 ± 2 m/s; in series [2] (308 K), 1420 ± 2 m/s. The mass density in series [2] (298 K) worked out at 944 ± 2 kg/m3; in series [2] (303 K), 939 ± 2 kg/m3; in series [2] (308 K), 935 ± 2 kg/m3.
`C1CCOC1` [tetrahydrofuran] + CCOc1ccccc1: the results for the refractive index in series [1] (298 K), in series [1] (303 K) and in series [1] (308 K) were 1.405 ± 0.002, 1.403 ± 0.002 and 1.4 ± 0.002, respectively. For the same compound, the speed of sound in series [2] (298 K) is on record as 1278 ± 2 m/s; in series [2] (303 K), 1254 ± 2 m/s; in series [2] (308 K), 1230 ± 2 m/s. Besides, the mass density in series [2] (298 K) is on record as 882 ± 2 kg/m3; in series [2] (303 K), 878 ± 2 kg/m3; in series [2] (308 K) it was 874 ± 2 kg/m3.
`CN1CCCC1=O` [N-methylpyrrolidone] + CCOc1ccccc1: the refractive index turned out to be 1.467 ± 0.002 in series [1] (298 K), 1.466 ± 0.002 in series [1] (303 K) and 1.464 ± 0.002 in series [1] (308 K). Further, the speed of sound is given as 1546 ± 2 m/s in series [2] (298 K), 1526 ± 2 m/s in series [2] (303 K) and 1507 ± 2 m/s in series [2] (308 K). In addition, the mass density in series [2] (298 K) was 1026 ± 2 kg/m3; in series [2] (303 K), 1022 ± 2 kg/m3; in series [2] (308 K) it was 1018 ± 2 kg/m3.
Turning to `CCOc1ccccc1` [ethoxybenzene], the speed of sound is 1369 ± 2 m/s in series [3] (298 K), 1349 ± 2 m/s in series [3] (303 K) and 1329 ± 2 m/s in series [3] (308 K). The mass density in series [3] (298 K) is given as 960 ± 2 kg/m3; in series [3] (303 K) it was 955 ± 2 kg/m3; in series [3] (308 K), 951 ± 2 kg/m3. Also, the refractive index in series [4] (298 K) is reported as 1.505 ± 0.002; in series [4] (303 K), 1.503 ± 0.002; in series [4] (308 K) it was 1.499 ± 0.002.
Regarding `CN1CCCC1=O` [N-methylpyrrolidone], the speed of sound is 1546 ± 2 m/s in series [3] (298 K), 1526 ± 2 m/s in series [3] (303 K) and 1507 ± 2 m/s in series [3] (308 K). The mass density in series [3] (298 K) is 1026 ± 2 kg/m3; in series [3] (303 K) it was 1022 ± 2 kg/m3; in series [3] (308 K), 1018 ± 2 kg/m3. In addition, the refractive index was determined as 1.467 ± 0.002 in series [4] (298 K), 1.466 ± 0.002 in series [4] (303 K) and 1.464 ± 0.002 in series [4] (308 K).
As for `CN(C)C=O` [dimethylformamide], the speed of sound in series [3] (298 K) worked out at 1457 ± 2 m/s; in series [3] (303 K), 1437 ± 2 m/s; in series [3] (308 K), 1420 ± 2 m/s. Further, the mass density is reported as 944 ± 2 kg/m3 in series [3] (298 K), 939 ± 2 kg/m3 in series [3] (303 K) and 935 ± 2 kg/m3 in series [3] (308 K). For the same compound, the refractive index in series [4] (298 K) came out at 1.429 ± 0.002; in series [4] (303 K) it was 1.427 ± 0.002; in series [4] (308 K) it was 1.425 ± 0.002.
As to `C1CCOC1` [tetrahydrofuran], the values for the speed of sound in series [3] (298 K), in series [3] (303 K) and in series [3] (308 K) were 1278 ± 2 m/s, 1254 ± 2 m/s and 1230 ± 2 m/s, respectively. For the same compound, the mass density came out at 882 ± 2 kg/m3 in series [3] (298 K), 878 ± 2 kg/m3 in series [3] (303 K) and 874 ± 2 kg/m3 in series [3] (308 K). For the same compound, the refractive index in series [4] (298 K) is 1.405 ± 0.002; in series [4] (303 K) it was 1.403 ± 0.002; in series [4] (308 K), 1.4 ± 0.002.
